Usually melting point stands for the temperature of the solid-liquid transition. The term IC50 denotes the concentration at which inhibition is half-maximal.

These results are taken from US7064124B2, “NF-κB inhibitor containing substituted benzoic acid derivative as active ingredient” (Daiichi Suntory Pharma Co., Ltd., priority 2001, dated 2006).

≈ marks a conversion by molar mass, not a printed value.

In one data set the test system is NF-κB. Put plainly: NF-κB luciferase reporter assay in A549/NF-κBLuc cells stimulated with IL-1β. Format: cell-based, human. To be noted: Homo sapiens, A549, A549/NF-κBLuc cells; compound added 1 hour before IL-1β, then 3 hours incubation; luciferase activity; read-out: NF-κB Inhibitory Activity (IC50). On the procedure: Effect on Human Lung Cancer-Derived Cell A549 (A549/NF-κBluc) Containing Stably Introduced Luciferase Plasmid (pNFκB-Luc, Stratagene. U.S.A.) Regulated by NF-κB Binding Sequence
Using Lipofectamine (Lifetech Oriental, Tokyo), pNFκB-Luc and pSV2neo (Clontech, U.S.A.) were co-transfected into the A549 cell (ATCC CCL185) and G418 sulfate (1 mg/ml, Lifetech Oriental) was added to the culture medium to select cells containing stably introduced pNFκB-Luc A549/NF-κBLuc.
The compound obtained in Examples each was added to A549/NF-κBLuc and one hour after that, IL-1β capable of activating NF-κB was added. The incubation was further continued for 3 hours.
NF-κB Inhibitory Activity (IC50) of Substituted Benzoic Acid Derivitives: […]
(In general: Reporter assays use an easily measured gene product as a stand-in for the process of interest.)

`COC1=C(OC)C(=O)C(Cc2ccc(O)c(C(=O)Nc3ccc(F)cc3)c2)=C(C)C1=O` [Example 142, N-[5-(5,6-Dimethoxy-3-methyl-1,4-benzoquinon-2-yl)methyl-2-hydroxybenzoyl]-4-fluoroaniline]: the melting point is 125 to 127 °C. In the data set with NF-κB, the half-inhibitory concentration (IC50) is 9 µg/mL (≈ 21.2 µM).

For `COC1=C(OC)C(=O)C(Cc2ccc(O)c(C(=O)Nc3ccccc3C(F)(F)F)c2)=C(C)C1=O` [Example 146, N-[5-(5,6-Dimethoxy-3-methyl-1,4-benzoquinon-2-yl)methyl-2-hydroxybenzoyl]-2-trifluoromethylaniline], the melting point lay in the range of 111 to 114 °C. Further, the concentration for half-maximal inhibition (IC50) with NF-κB is 11 µg/mL (≈ 23.1 µM).

The molecule `CCOC(=O)c1ccc(NC(=O)c2cc(CC3=C(C)C(=O)C(OC)=C(OC)C3=O)ccc2OC(C)=O)cc1` [Example 147, Ethyl N-[5-(5,6-dimethoxy-3-methyl-1,4-benzoquinon-2-yl)methyl-2-acetoxybenzoyl]-4-aminobenzoate] returned a melting point of 154 to 156.5 °C. Moreover, the IC50 in the data set with NF-κB turned out to be 19 µg/mL (≈ 36.4 µM).

For the molecule `CCOC(=O)c1ccc(NC(=O)c2cc(CC3=C(C)C(=O)C(OC)=C(OC)C3=O)ccc2O)cc1` [Example 148], the melting point fell in the range of 176 to 179 °C. In addition, the concentration for half-maximal inhibition (IC50) in the data set with NF-κB was 3 µg/mL (≈ 6.26 µM).

`COC1=C(OC)C(=O)C(Cc2ccc(OC(C)=O)c(C(=O)Nc3ccc(CC#N)cc3)c2)=C(C)C1=O` [Example 149, N-[5-(5,6-Dimethoxy-3-methyl-1,4-benzoquinon-2-yl)methyl-2-acetoxybenzoyl]-4-cyanomethylaniline]: the melting point was in the range of 125 to 128 °C. The IC50 with NF-κB was 25 µg/mL (≈ 51.2 µM).

As to `COC1=C(OC)C(=O)C(Cc2ccc(O)c(C(=O)Nc3ccc(CC#N)cc3)c2)=C(C)C1=O` [Example 150, N-[5-(5,6-Dimethoxy-3-methyl-1,4-benzoquinon-2-yl)methyl-2-hydroxybenzoyl]-4-cyanomethylaniline], the melting point lay within 164.5 to 166 °C. For the same molecule, the IC50 with NF-κB is 4 µg/mL (≈ 8.96 µM).

Turning to `COC1=C(OC)C(=O)C(Cc2ccc(O)c(C(=O)Nc3cccnc3)c2)=C(C)C1=O` [Example 158, N-(Pyridin-3-yl)-5-(5,6-dimethoxy-3-methyl-1,4-benzoquinon-2-yl)methyl-2-hydroxybenzamide], the melting point was in the range of 119 to 122.5 °C. In the data set on NF-κB, the IC50 was 7 µg/mL (≈ 17.1 µM).

The molecule `COC1=C(OC)C(=O)C(Cc2ccc(OCc3cccnc3)c(C(=O)NC3CCCCC3)c2)=C(C)C1=O` [Example 171, N-Cyclohexyl-5-(5,6-dimethoxy-3-methyl-1,4-benzoquinon-2-yl)methyl-2-(3-pyridylmethyloxy)benzamide] displayed a melting point of 115 to 118 °C. For the same molecule, the IC50 with NF-κB came to 26 µg/mL (≈ 51.5 µM).

In turn, `COC1=C(OC)C(=O)C(Cc2ccc(OC(C)=O)c(C(=O)Nc3ccc(S(=O)(=O)C(F)(F)F)cc3)c2)=C(C)C1=O` [Example 173, N-[5-(5,6-Dimethoxy-3-methyl-1,4-benzoquinon-2-yl)methyl-2-acetoxybenzoyl]-4-(trifluoromethylsulfonyl)aniline] returned a melting point of 84.5 to 87 °C. The IC50 in the data set with NF-κB came to 9 µg/mL (≈ 15.5 µM).

As to `COC1=C(OC)C(=O)C(Cc2ccc(O)c(C(=O)Nc3ccc(S(=O)(=O)C(F)(F)F)cc3)c2)=C(C)C1=O` [Example 174, N-[5-(5,6-Dimethoxy-3-methyl-1,4-benzoquinon-2-yl)methyl-2-hydroxybenzoyl]-4-(trifluoromethylsulfonyl)aniline], the melting point was 223 to 225.5 °C. Further, the IC50 with NF-κB was 6 µg/mL (≈ 11.1 µM).

With `COC1=C(OC)C(=O)C(Cc2ccc(OC(C)=O)c(C(=O)Nc3ccc(OC)nc3)c2)=C(C)C1=O` [Example 180], the melting point lay within 104.5 to 107.5 °C. For the same molecule, the IC50 in the data set with NF-κB came out at 23 µg/mL (≈ 47.9 µM).

`COC1=C(OC)C(=O)C(Cc2ccc(O)c(C(=O)Nc3ccc(OC)nc3)c2)=C(C)C1=O` [Example 181, N-(6-Methoxypyridin-3-yl)-5-(5,6-dimethoxy-3-methyl-1,4-benzoquinon-2-yl)methyl-2-hydroxybenzamide] gave a melting point of 169 to 170 °C. Moreover, the IC50 in the data set with NF-κB turned out to be 11 µg/mL (≈ 25.1 µM).

Turning to `COC1=C(OC)C(=O)C(Cc2ccc(OC(C)=O)c(C(=O)Nc3ccc(Cl)nc3)c2)=C(C)C1=O` [Example 184, N-(6-Chloropyridin-3-yl)-5-(5,6-dimethoxy-3-methyl-1,4-benzoquinon-2-yl)methyl-2-acetoxybenzamide], the melting point fell in the range of 74.5 to 77.5 °C. The IC50 in the data set on NF-κB was 56 µg/mL (≈ 115 µM).

For the molecule `COC1=C(OC)C(=O)C(Cc2ccc(O)c(C(=O)Nc3ccc(C(=O)O)cc3)c2)=C(C)C1=O` [Example 190, N-[5-(5,6-Dimethoxy-3-methyl-1,4-benzoquinon-2-yl)methyl-2-hydroxybenzoyl]-4-aminobenzoic acid], the melting point fell in the range of 257 to 260 °C.

Turning to `COC1=C(OC)C(=O)C(Cc2ccc(O)c(C(=O)Nc3c(Cl)cc(OC(F)(F)F)cc3Cl)c2)=C(C)C1=O` [Example 192, N-[5-(5,6-Dimethoxy-3-methyl-1,4-benzoquinon-2-yl)methyl-2-hydroxybenzoyl]-2,6-dichloro-4-trifluoromethoxyaniline], the melting point lay in the range of 138 to 141 °C.

Regarding `COC1=C(OC)C(=O)C(Cc2ccc(OC(C)=O)c(C(=O)Nc3ncccc3C(=O)O)c2)=C(C)C1=O` [Example 194, N-(3-Hydroxycarbonylpyridin-2-yl)-5-(5,6-dimethoxy-3-methyl-1,4-benzoquinon-2-yl)methyl-2-acetoxybenzamide], the melting point fell in the range of 148 to 151 °C.

With `COC1=C(OC)C(=O)C(Cc2ccc(O)c(C(=O)Nc3ncccc3C(=O)O)c2)=C(C)C1=O` [Example 195, N-(3-Hydroxycarbonylpyridin-2-yl)-5-(5,6-dimethoxy-3-methyl-1,4-benzoquinon-2-yl)methyl-2-hydroxybenzamide], the melting point is 134 to 136.5 °C.

In turn, `COC1=C(OC)C(=O)C(Cc2ccc(OC(C)=O)c(C(=O)Nc3ccc(C(=O)O)cn3)c2)=C(C)C1=O` [Example 197, N-(5-Hydroxycarbonylpyridin-2-yl)-5-(5,6-dimethoxy-3-methyl-1,4-benzoquinon-2-yl)methyl-2-acetoxybenzamide] came in with a melting point of 123 to 125 °C.

The molecule `COC1=C(OC)C(=O)C(Cc2ccc(O)c(C(=O)Nc3ccc(C(=O)O)cn3)c2)=C(C)C1=O` [Example 198, N-(5-Hydroxycarbonylpyridin-2-yl)-5-(5,6-dimethoxy-3-methyl-1,4-benzoquinon-2-yl)methyl-2-hydroxybenzamide] showed a melting point of 238 to 241 °C.

Consider `COC1=C(OC)C(=O)C(Cc2ccc(O)c(C(=O)Nc3ccc(-n4ccnc4)cc3)c2)=C(C)C1=O` [Example 209, N-[5-(5,6-Dimethoxy-3-methyl-1,4-benzoquinon-2-yl)methyl-2-hydroxybenzoyl]-4-(imidazol-1-yl)aniline], for which the melting point fell in the range of 119 to 121.5 °C.

In turn, `COC1=C(OC)C(=O)C(Cc2ccc(O)c(C(=O)Nc3ccc(-c4ccn[nH]4)cc3)c2)=C(C)C1=O` [Example 211, N-[5-(5,6-Dimethoxy-3-methyl-1,4-benzoquinon-2-yl)methyl-2-hydroxybenzoyl]-4-(1H-pyrazol-3-yl)aniline] registered a melting point of 182 to 185.5 °C.

In the case of `COC1=C(OC)C(=O)C(Cc2ccc(OC(C)=O)c(C(=O)Nc3cccnc3OC)c2)=C(C)C1=O` [Example 215, N-(2-Methoxypyridin-3-yl)-5-(5,6-dimethoxy-3-methyl-1,4-benzoquinon-2-yl)methyl-2-acetoxybenzamide], the melting point lay in the range of 111 to 112 °C.

`COC1=C(OC)C(=O)C(Cc2ccc(OC(C)=O)c(C(=O)Nc3cc(OC)ccc3OC)c2)=C(C)C1=O` [Example 219, N-[5-(5,6-Dimethoxy-3-methyl-1,4-benzoquinon-2-yl)methyl-2-acetoxybenzoyl]-2,5-dimethoxyaniline] displayed a melting point of 118.5 to 120 °C.

The molecule `COC1=C(OC)C(=O)C(Cc2ccc(OC(C)=O)c(C(=O)Nc3ccnc(OC)c3)c2)=C(C)C1=O` [Example 230, N-(2-Methoxypyridin-4-yl)-5-(5,6-dimethoxy-3-methyl-1,4-benzoquinon-2-yl)methyl-2-acetoxybenzamide] displayed a melting point of 138 to 140.5 °C.

Molecule `COC1=C(OC)C(=O)C(Cc2ccc(O)c(C(=O)Nc3ccnc(OC)c3)c2)=C(C)C1=O` [Example 231, N-(2-Methoxypyridin-4-yl)-5-(5,6-dimethoxy-3-methyl-1,4-benzoquinon-2-yl)methyl-2-hydroxybenzamide] yielded a melting point of 218 to 220.5 °C.

Molecule `CC(=O)Oc1ccc(CC2=C(C)C(=O)C(C)=C(C)C2=O)cc1C(=O)O` [Example 233, 5-(3,5,6-Trimethyl-1,4-benzoquinon-2-yl)methyl-2-acetoxybenzoic acid] returned a melting point of 157 to 159.5 °C.

As for `CC(=O)Oc1ccc(CC2=C(C)C(=O)C(C)=C(C)C2=O)cc1C(=O)Nc1ccc(C(F)(F)F)cc1` [Example 234, N-[5-(3,5,6-Trimethyl-1,4-benzoquinon-2-yl)methyl-2-acetoxybenzoyl]-4-trifluoromethylaniline], the melting point is 180 to 181 °C.

`CC(=O)Oc1ccc(CC2=C(C)C(=O)C(C)=C(C)C2=O)cc1C(=O)Nc1cccnc1Cl` [Example 236, N-(2-Chloropyridin-3-yl)-5-(3,5,6-trimethyl-1,4-benzoquinon-2-yl)methyl-2-acetoxybenzamide] returned a melting point of 130 to 131 °C.

`CC1=C(C)C(=O)C(Cc2ccc(O)c(C(=O)Nc3ccncc3)c2)=C(C)C1=O` [Example 238, N-(Pyridin-4-yl)-5-(3,5,6-trimethyl-1,4-benzoquinon-2-yl)methyl-2-hydroxybenzamide] showed a melting point of 245 to 247 °C.
